Results on 30 molecules are retold here after US20090054454A1, “BENZOFURANYL- AND BENZOTHIENYL- PIPERAZINYL QUINOLINES AND METHODS OF THEIR USE” (priority 2007, published 2009).

One series addresses 5-HT transporter (Rattus norvegicus, UniProt P31652). As to the kind of experiment: Rat Brain 3H-Paroxetine Binding Assay (RB 5HT Transporter). As to conditions: read-out: RB-5HT Transporter % inhibition @ 1 μM concentration.
The target in another series is Human 5-HT Transporter (Homo sapiens, UniProt P31645). As to the kind of experiment: Inhibition of 3H-5-HT Uptake by Cells Possessing the Human 5-HT Transporter (HC 5HT Transporter), Jar cells. As to conditions: HC-5HTC Transporter Ki (nM), Jar cells treated with staurosporine.
Sequence of Human 5-HT Transporter (P31645 whole entry): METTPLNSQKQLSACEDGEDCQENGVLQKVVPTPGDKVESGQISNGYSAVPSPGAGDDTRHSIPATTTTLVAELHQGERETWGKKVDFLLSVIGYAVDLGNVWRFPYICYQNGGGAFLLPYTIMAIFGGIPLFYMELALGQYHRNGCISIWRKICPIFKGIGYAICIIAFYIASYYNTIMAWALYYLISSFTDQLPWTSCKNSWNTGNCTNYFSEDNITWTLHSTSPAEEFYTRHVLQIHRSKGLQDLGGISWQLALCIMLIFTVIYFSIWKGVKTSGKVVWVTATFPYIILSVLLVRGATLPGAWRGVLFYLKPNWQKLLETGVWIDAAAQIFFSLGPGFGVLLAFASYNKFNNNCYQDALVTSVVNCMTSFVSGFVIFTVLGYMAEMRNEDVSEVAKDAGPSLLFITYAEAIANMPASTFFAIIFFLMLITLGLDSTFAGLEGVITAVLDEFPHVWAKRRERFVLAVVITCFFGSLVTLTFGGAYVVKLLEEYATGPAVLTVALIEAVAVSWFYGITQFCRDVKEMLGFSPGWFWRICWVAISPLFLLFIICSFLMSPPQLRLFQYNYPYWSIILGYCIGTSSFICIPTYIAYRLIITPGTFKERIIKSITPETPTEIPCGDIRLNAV

Molecules are shown by their SMILES. Where a name gives a salt, the structure may show the parent alone.

Sequence of 5-HT transporter (P31652 whole entry): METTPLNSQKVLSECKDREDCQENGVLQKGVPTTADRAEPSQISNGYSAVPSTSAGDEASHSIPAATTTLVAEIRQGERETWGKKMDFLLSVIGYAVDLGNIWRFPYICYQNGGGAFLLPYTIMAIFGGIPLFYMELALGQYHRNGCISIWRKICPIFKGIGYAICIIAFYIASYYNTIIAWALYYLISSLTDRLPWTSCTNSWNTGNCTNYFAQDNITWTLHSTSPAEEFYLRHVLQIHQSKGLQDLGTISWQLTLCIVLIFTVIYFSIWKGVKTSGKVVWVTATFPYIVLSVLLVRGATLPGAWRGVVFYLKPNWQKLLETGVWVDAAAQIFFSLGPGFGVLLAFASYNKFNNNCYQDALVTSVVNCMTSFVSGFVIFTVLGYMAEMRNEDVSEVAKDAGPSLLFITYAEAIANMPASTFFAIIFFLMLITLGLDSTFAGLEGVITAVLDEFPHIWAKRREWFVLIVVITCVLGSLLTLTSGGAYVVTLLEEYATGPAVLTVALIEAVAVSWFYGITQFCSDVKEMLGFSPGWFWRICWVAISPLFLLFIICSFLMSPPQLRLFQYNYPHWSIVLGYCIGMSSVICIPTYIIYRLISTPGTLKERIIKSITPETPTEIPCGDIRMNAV

In turn, `Fc1cc(N2CCN(CCc3coc4ccc(F)cc34)CC2)c2ncccc2c1` (as salt: HCl) [Compound 17, 8-{4-[2-(5-fluoro-1-benzofuran-3-yl)ethyl]-1-piperazinyl}-6-fluoro-quinoline] displayed a melting point of 55 °C.

`COc1cc(N2CCN(CCc3coc4c(OC)cccc34)CC2)c2ncccc2c1` (as salt: HCl) [Compound 19, 8-{4-[2-(7-methoxy-1-benzofuran-3-yl)ethyl]-1-piperazinyl}-6-methoxy-quinoline] came in with a melting point of 86 °C.

The molecule `COc1cccc2c(CCN3CCN(c4cc(Cl)cc5cccnc45)CC3)coc12` (as salt: HCl) [Compound 20, 8-{4-[2-(7-methoxy-1-benzofuran-3-yl)ethyl]-1-piperazinyl}-6-chloro-quinoline] returned a melting point of 248 °C.

On to `COc1cccc2c(C(C)CN3CCN(c4cccc5cccnc45)CC3)coc12` (centres unmarked) (as salt: HCl) [Compound 31, 8-{4-[2-(7-methoxy-1-benzofuran-3-yl)propyl]-1-piperazinyl}quinoline], for which the melting point came to 192 °C.

Regarding `COc1cccc2c(C(C)CN3CCN(c4cc(Cl)cc5cccnc45)CC3)coc12` (centres unmarked) (as salt: HCl) [Compound 33, 8-{4-[2-(7-methoxy-1-benzofuran-3-yl)propyl]-1-piperazinyl}-6-chloro-quinoline], the melting point is 55 to 58 °C.

As to `Clc1cc(N2CCN(CCc3coc4cc(Cl)ccc34)CC2)c2ncccc2c1` [Compound 7, 8-{4-[2-(6-chloro-1-benzofuran-3-yl)ethyl]-1-piperazinyl}-6-chloro-quinoline], the inhibition at 1 µM at 5-HT transporter came out at 32%. At Human 5-HT Transporter, this molecule had a Ki of 2150 nM.

As for `COc1ccc2occ(CCN3CCN(c4cccc5cccnc45)CC3)c2c1` [Compound 21, 8-{4-[2-(5-methoxy-1-benzofuran-3-yl)ethyl]-1-piperazinyl}-quinoline], the melting point was 78 °C. Also, the affinity on Human 5-HT Transporter, expressed as Ki, was 43.6 nM.

`COc1ccc2occ(CCN3CCN(c4cc(Cl)cc5cccnc45)CC3)c2c1` [Compound 22, 8-{4-[2-(5-methoxy-1-benzofuran-3-yl)ethyl]-1-piperazinyl}-6-chloro-quinoline] displayed a melting point of 72 °C. On Human 5-HT Transporter, this molecule had a Ki of 106 nM.

Molecule `Clc1cc(N2CCN([C@H]3CC[C@@H](c4csc5ccccc54)CC3)CC2)c2ncccc2c1` [Compound 41, 8-{4-[4-cis-(1-benzothien-3-yl)cyclohexyl]-1-piperazinyl}-6-chloroquinoline] had a melting point of 164 to 165 °C. This molecule gave a Ki on Human 5-HT Transporter of 338 nM.

As for `Clc1cc(N2CCN([C@H]3CC[C@H](c4csc5ccccc54)CC3)CC2)c2ncccc2c1` [Compound 42, 8-{4-[4-trans(1-benzothien-3-yl)cyclohexyl]-1-piperazinyl}-6-chloroquinoline], the melting point lay in the range of 143 to 144 °C. This molecule returned a Ki at Human 5-HT Transporter of 184 nM.

In turn, `Fc1cc(N2CCN([C@H]3CC[C@@H](c4csc5ccccc54)CC3)CC2)c2ncccc2c1` [Compound 43, 8-{4-[4-cis(1-benzothien-3-yl)cyclohexyl]-1-piperazinyl}-6-fluoroquinoline] yielded a melting point of 147 to 151 °C. On Human 5-HT Transporter, this molecule returned a Ki of 1440 nM.

In the case of `Fc1cc(N2CCN([C@H]3CC[C@H](c4csc5ccccc54)CC3)CC2)c2ncccc2c1` [Compound 44, 8-{4-[4-trans(1-benzothien-3-yl)cyclohexyl]-1-piperazinyl}-6-fluoroquinoline], the melting point amounted to 195 °C. The affinity at Human 5-HT Transporter, expressed as Ki, was 1620 nM.

`COc1cc(N2CCN([C@H]3CC[C@@H](c4csc5ccccc54)CC3)CC2)c2ncccc2c1` [Compound 45, 8-{4-[4-cis(1-benzothien-3-yl)cyclohexyl]-1-piperazinyl}-6-methoxyquinoline] displayed a melting point of 148 to 150 °C. In addition, at Human 5-HT Transporter, the affinity corresponds to a Ki of 1080 nM.

The molecule `COc1cc(N2CCN([C@H]3CC[C@H](c4csc5ccccc54)CC3)CC2)c2ncccc2c1` [Compound 46, 8-{4-[4-trans (1-benzothien-3-yl)cyclohexyl]-1-piperazinyl}-6-methoxyquinoline] showed a melting point of 166 to 168 °C. Also, on Human 5-HT Transporter, the affinity, expressed as Ki, was 802 nM.

`Fc1cc(N2CCN([C@H]3CC[C@@H](c4csc5ccc(F)cc54)CC3)CC2)c2ncccc2c1` [Compound 47, 6-fluoro-8-{4-[4-cis(5-fluoro-1-benzothien-3-yl)cyclohexyl]piperazin-1-yl}quinoline]: the inhibition at 1 µM on 5-HT transporter is 25%. The molecule further had a Ki at Human 5-HT Transporter of 3490 nM.

For the molecule `Fc1cc(N2CCN([C@H]3CC[C@H](c4csc5ccc(F)cc54)CC3)CC2)c2ncccc2c1` [Compound 48, 6-fluoro-8-{4-[4-trans(5-fluoro-1-benzothien-3-yl)cyclohexyl]piperazin-1-yl}quinoline], the melting point is 143 to 144 °C. This molecule also yielded a Ki on Human 5-HT Transporter of 739 nM.

In the case of `Fc1ccc2scc([C@H]3CC[C@@H](N4CCN(c5ccc(Cl)c6cccnc56)CC4)CC3)c2c1` [Compound 51, 5-chloro-8-{4-[4-cis(5-fluoro-1-benzothien-3-yl)cyclohexyl]piperazin-1-yl}quinoline], the melting point fell in the range of 192 to 197 °C. Besides, on Human 5-HT Transporter, the Ki came out at 1150 nM.

On to `Fc1ccc(N2CCN([C@H]3CC[C@@H](c4coc5ccccc54)CC3)CC2)c2ncccc12` [Compound 53, 8-{4-[4-cis(1-benzofuran-3-yl)cyclohexyl]-1-piperazinyl}-5-fluoroquinoline], for which the melting point lay within 142 to 144 °C. The molecule further returned a Ki on Human 5-HT Transporter of 3910 nM.

The molecule `Fc1ccc(N2CCN([C@H]3CC[C@H](c4coc5ccccc54)CC3)CC2)c2ncccc12` [Compound 54, 8-{4-[4-trans(1-benzofuran-3-yl)cyclohexyl]-1-piperazinyl}-5-fluoroquinoline] displayed a melting point of 162 to 164 °C. Moreover, the affinity at Human 5-HT Transporter, expressed as Ki, was 220 nM.

Molecule `Fc1cc(N2CCN([C@H]3CC[C@H](c4coc5ccccc54)CC3)CC2)c2ncccc2c1` [Compound 56, 8-{4-[4-trans(1-benzofuran-3-yl)cyclohexyl]-1-piperazinyl}-6-fluoroquinoline] registered a melting point of 195 to 197 °C. Further, at Human 5-HT Transporter, the Ki came out at 337 nM.

As to `COc1cccc2c1occ2[C@H]1CC[C@@H](N2CCN(c3ccc(F)c4cccnc34)CC2)CC1` [Compound 57, 5-fluoro-8-{4-[4-cis(7-methoxy-1-benzofuran-3-yl)cyclohexyl]-1-piperazinyl}quinoline], the melting point was in the range of 143 to 146 °C. This molecule also yielded a Ki on Human 5-HT Transporter of 3040 nM.

In turn, `COc1cccc2c1occ2[C@H]1CC[C@@H](N2CCN(c3cc(F)cc4cccnc34)CC2)CC1` [Compound 59, 6-fluoro-8-{4-[4-cis(7-methoxy-1-benzofuran-3-yl)cyclohexyl]-1-piperazinyl}quinoline] showed a melting point of 75 to 83 °C. The molecule further returned an inhibition constant (Ki) on Human 5-HT Transporter of 455 nM.

As to `COc1cccc2c1occ2[C@H]1CC[C@H](N2CCN(c3cc(F)cc4cccnc34)CC2)CC1` [Compound 60, 6-fluoro-8-{4-[4-trans(7-methoxy-1-benzofuran-3-yl)cyclohexyl]-1-piperazinyl}quinoline], the melting point was in the range of 195 to 197 °C. Besides, affinity at Human 5-HT Transporter was put at a Ki of 212 nM.

Take `COc1cccc2c1occ2[C@H]1CC[C@@H](N2CCN(c3cccc4cccnc34)CC2)CC1` [Compound 61, 8-{4-[4-cis(7-methoxy-1-benzofuran-3-yl)cyclohexyl]-1-piperazinyl}quinoline]: the melting point lay in the range of 66 to 67 °C. This molecule displayed a Ki at Human 5-HT Transporter of 96.8 nM.

Molecule `COc1cccc2c1occ2[C@H]1CC[C@H](N2CCN(c3cccc4cccnc34)CC2)CC1` [Compound 62, 8-{4-[4-trans(7-methoxy-1-benzofuran-3-yl)cyclohexyl]-1-piperazinyl}quinoline] showed a melting point of 195 to 197 °C. The same molecule yielded a Ki at Human 5-HT Transporter of 38 nM.

As to `COc1ccc2occ([C@H]3CC[C@@H](N4CCN(c5cc(F)cc6cccnc56)CC4)CC3)c2c1` [Compound 67, 6-fluoro-8-{4-[4-cis(5-methoxy-1-benzofuran-3-yl)cyclohexyl]piperazin-1-yl}quinoline], the melting point was in the range of 153 to 160 °C. In addition, the Ki at Human 5-HT Transporter is 1200 nM.

In turn, `COc1ccc2occ([C@H]3CC[C@H](N4CCN(c5cc(F)cc6cccnc56)CC4)CC3)c2c1` [Compound 68, 6-fluoro-8-{4-[4-trans(5-methoxy-1-benzofuran-3-yl)cyclohexyl]piperazin-1-yl}quinoline] came in with a melting point of 152 to 155 °C. At Human 5-HT Transporter, this molecule showed a Ki of 3290 nM.

For `Fc1cc(N2CCN(C3CCC(c4cc5ccccc5o4)CC3)CC2)c2ncccc2c1` (centres unmarked) [Compound 69, 8-[4-(4-benzofuran-2-yl-yclohexyl)-piperazin-1-yl]-6-fluoro-quinoline], the melting point was in the range of 91 to 93 °C.

`COc1cc(N2CCN([C@H]3CC[C@@H](c4cc5ccccc5s4)CC3)CC2)c2ncccc2c1` [Compound 70]: the melting point lay within 184 to 186 °C. This molecule also returned a Ki at Human 5-HT Transporter of 3000 nM.

Molecule `COc1cc(N2CCN([C@H]3CC[C@H](c4cc5ccccc5s4)CC3)CC2)c2ncccc2c1` [Compound 71] displayed a melting point of 193 to 194 °C.

A word on the melting point: it is the temperature, or range, at which the solid turns liquid. A word on the Ki: it is a measure of affinity in units of concentration, obtained from inhibition or displacement. Higher therefore signals weaker binding.
